Results from ChEMBL document CHEMBL1212786 (Antimicrob Agents Chemother, 2010).
pEC50, pIC50: −log10 of the molar value.

What was measured:
Hepatitis C virus [1] = test: Antiviral activity against Hepatitis C virus infected in human Huh7ET cells assessed as inhibition of viral replication after 72 hrs by luciferase reporter gene assay; format: functional, organism-based
[2] = Cytotoxicity against human Huh7ET cells assessed as lactate dehydrogenase release up to 5 uM after 72 hrs; format: cell-based; conditions: huh-7, 72 h
[3] = Intrinsic clearance in CD1 mouse liver microsomes at 1 uM after 5 to 30 mins by MS analysis in presence of NADPH; format: ADME, Microsome
Liver microsomes = test: Intrinsic clearance in human liver microsomes at 1 uM after 5 to 30 mins by MS analysis in presence of NADPH; format: ADME, Microsome
Cytochrome P450 2C19 = Cytochrome P450 2C19 (Homo sapiens, UniProt P33261); test: Inhibition of human recombinant CYP2C19 after 30 mins; format: ADME
Cytochrome P450 2C19, sequence (P33261 whole entry): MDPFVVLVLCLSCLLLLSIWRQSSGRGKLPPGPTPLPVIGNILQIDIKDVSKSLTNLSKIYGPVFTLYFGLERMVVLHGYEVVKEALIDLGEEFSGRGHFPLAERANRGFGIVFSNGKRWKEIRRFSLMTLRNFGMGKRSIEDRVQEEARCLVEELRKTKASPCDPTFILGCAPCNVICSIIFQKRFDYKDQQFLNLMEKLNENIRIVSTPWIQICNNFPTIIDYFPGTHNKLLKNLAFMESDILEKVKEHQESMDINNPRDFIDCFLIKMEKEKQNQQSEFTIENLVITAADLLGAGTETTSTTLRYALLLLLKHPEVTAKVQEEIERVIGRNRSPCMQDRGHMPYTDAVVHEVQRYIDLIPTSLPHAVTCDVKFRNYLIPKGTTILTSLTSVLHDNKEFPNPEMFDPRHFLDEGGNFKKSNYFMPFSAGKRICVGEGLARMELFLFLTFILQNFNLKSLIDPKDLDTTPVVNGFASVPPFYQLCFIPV

Cytochrome P450 2C9 = Cytochrome P450 2C9 (Homo sapiens, UniProt P11712); test: Inhibition of human recombinant CYP2C9 after 30 mins; format: ADME
Cytochrome P450 2C9, sequence (P11712 whole entry): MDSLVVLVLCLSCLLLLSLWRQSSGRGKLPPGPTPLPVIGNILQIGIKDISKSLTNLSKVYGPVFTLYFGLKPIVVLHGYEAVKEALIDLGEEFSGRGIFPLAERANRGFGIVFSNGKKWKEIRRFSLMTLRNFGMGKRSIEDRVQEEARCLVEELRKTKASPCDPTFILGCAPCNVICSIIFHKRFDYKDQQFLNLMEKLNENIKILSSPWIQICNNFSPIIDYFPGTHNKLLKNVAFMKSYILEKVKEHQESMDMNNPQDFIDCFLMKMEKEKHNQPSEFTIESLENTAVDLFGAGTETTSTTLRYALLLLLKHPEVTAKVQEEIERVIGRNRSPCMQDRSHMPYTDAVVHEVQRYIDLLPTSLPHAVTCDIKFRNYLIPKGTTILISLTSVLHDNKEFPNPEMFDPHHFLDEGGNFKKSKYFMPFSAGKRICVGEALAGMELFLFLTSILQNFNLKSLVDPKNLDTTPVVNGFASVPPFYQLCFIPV

[4] = Cmax in Sprague-Dawley rat at 2 mg/kg, iv after 24 hrs by LC/MS/MS analysis; format: ADME, organism-based; set-up: dose 2 mg/kg, route intravenous; conditions: in vivo
[5] = Cmax in monkey at 1.4 mg/kg, iv after 24 hrs by LC/MS/MS analysis; format: ADME, organism-based, Macaca mulatta; set-up: dose 1.4 mg/kg, route intravenous; conditions: rhesus monkey, in vivo
[6] = Systemic clearance in Sprague-Dawley rat at 2 mg/kg, iv after 24 hrs by LC/MS/MS analysis; format: ADME, organism-based; set-up: dose 2 mg/kg, route intravenous; conditions: in vivo
[7] = Systemic clearance in Sprague-Dawley rat at 5 mg/kg, iv after 24 hrs by LC/MS/MS analysis; format: ADME, organism-based; set-up: dose 5 mg/kg, route intravenous; conditions: in vivo
[8] = Systemic clearance in monkey at 1 mg/kg, iv after 24 hrs by LC/MS/MS analysis; format: ADME, organism-based, Macaca mulatta; set-up: dose 1 mg/kg, route intravenous; conditions: rhesus monkey, in vivo
[9] = Apparent elimination half life in monkey at 1.4 mg/kg, iv by LC/MS/MS analysis; format: ADME, organism-based, Macaca mulatta; set-up: dose 1.4 mg/kg, route intravenous; conditions: rhesus monkey, in vivo
[10] = AUC (0 to infinity) in Sprague-Dawley rat at 2 mg/kg, iv after 24 hrs by LC/MS/MS analysis; format: ADME, organism-based; set-up: time infinity, dose 2 mg/kg, route intravenous; conditions: plasma
[11] = AUC (0 to infinity) in Sprague-Dawley rat at 5 mg/kg, iv after 24 hrs by LC/MS/MS analysis; format: ADME, organism-based; set-up: time infinity, dose 5 mg/kg, route intravenous; conditions: plasma
[12] = AUC (0 to infinity) in monkey at 1 mg/kg, iv after 24 hrs by LC/MS/MS analysis; format: ADME, organism-based, Macaca mulatta; set-up: time infinity, dose 1 mg/kg, route intravenous; conditions: rhesus monkey, plasma
[13] = Cmax in monkey at 7.5 mg/kg, po after 24 hrs by LC/MS/MS analysis; format: ADME, organism-based, Macaca mulatta; set-up: dose 7.5 mg/kg, route oral; conditions: rhesus monkey, in vivo
[14] = Tmax in monkey at 5 mg/kg, po by LC/MS/MS analysis; format: ADME, organism-based, Macaca mulatta; set-up: dose 5 mg/kg, route oral; conditions: rhesus monkey, in vivo
[15] = Tmax in monkey at 7. 5 mg/kg, po by LC/MS/MS analysis; format: ADME, organism-based, Macaca mulatta; set-up: dose 5 mg/kg, route oral; conditions: rhesus monkey, in vivo
[16] = AUC (0 to infinity) in Sprague-Dawley rat at 5 mg/kg, po after 24 hrs by LC/MS/MS analysis; format: ADME, organism-based; set-up: time infinity, dose 5 mg/kg, route oral; conditions: plasma
[17] = AUC (0 to infinity) in monkey at 5 mg/kg, po after 24 hrs by LC/MS/MS analysis; format: ADME, organism-based, Macaca mulatta; set-up: time infinity, dose 5 mg/kg, route oral; conditions: rhesus monkey, plasma
[18] = AUC (0 to infinity) in monkey at 15 mg/kg, po after 24 hrs by LC/MS/MS analysis; format: ADME, organism-based, Macaca mulatta; set-up: time infinity, dose 15 mg/kg, route oral; conditions: rhesus monkey, plasma
[19] = AUC (0 to infinity) in monkey at 7.5 mg/kg, po after 24 hrs by LC/MS/MS analysis; format: ADME, organism-based, Macaca mulatta; set-up: dose 7.5 mg/kg, route oral, time infinity; conditions: rhesus monkey, plasma
[20] = Apparent elimination half life Sprague-Dawley rat at 10 mg/kg, po after 24 hrs by LC/MS/MS analysis; format: ADME, organism-based; set-up: dose 10 mg/kg, route oral; conditions: in vivo
[21] = Apparent elimination half life in monkey at 15 mg/kg, po after 24 hrs by LC/MS/MS analysis; format: ADME, organism-based, Macaca mulatta; set-up: dose 15 mg/kg, route oral; conditions: rhesus monkey, in vivo
[22] = Oral bioavailability in Sprague-Dawley rat at 5 mg/kg after 24 hrs by LC/MS/MS analysis; format: ADME, organism-based; conditions: in vivo
[23] = Oral bioavailability in Sprague-Dawley rat at 10 mg/kg after 24 hrs by LC/MS/MS analysis; format: ADME, organism-based; conditions: in vivo
[24] = Oral bioavailability in Sprague-Dawley rat at 20 mg/kg after 24 hrs by LC/MS/MS analysis; format: ADME, organism-based; conditions: in vivo
[25] = Oral bioavailability in monkey at 15 mg/kg after 24 hrs by LC/MS/MS analysis; format: ADME, organism-based, Macaca mulatta; conditions: rhesus monkey, in vivo
[26] = Oral bioavailability in monkey at 7.5 mg/kg after 24 hrs by LC/MS/MS analysis; format: ADME, organism-based, Macaca mulatta; conditions: rhesus monkey, in vivo
[27] = AUC (2 to 24 hrs) in Sprague-Dawley rat liver at 10 mg/kg, iv by LC/MS/MS analysis; format: ADME, organism-based; set-up: time 2-24 hr, dose 10 mg/kg, route intravenous
[28] = AUC (2 to 24 hrs) in Sprague-Dawley rat liver at 10 mg/kg, po by LC/MS/MS analysis; format: ADME, organism-based; set-up: time 2-24 hr, dose 10 mg/kg, route oral
[29] = AUC (2 to 24 hrs) in Sprague-Dawley rat liver at 30 mg/kg, po by LC/MS/MS analysis; format: ADME, organism-based; set-up: time upper 24 hr, time lower 2 hr, dose 30 mg/kg, route oral
[30] = Cmax in Sprague-Dawley rat liver at 10 mg/kg, iv by LC/MS/MS analysis; format: ADME, organism-based; set-up: dose 10 mg/kg, route intravenous
[31] = Cmax in Sprague-Dawley rat whole blood at 10 mg/kg, iv by LC/MS/MS analysis; format: ADME, organism-based; set-up: dose 10 mg/kg, route intravenous
[32] = Cmax in Sprague-Dawley rat whole blood at 10 mg/kg, po by LC/MS/MS analysis; format: ADME, organism-based; set-up: dose 10 mg/kg, route oral
[33] = Cmax in Sprague-Dawley rat whole blood at 30 mg/kg, po by LC/MS/MS analysis; format: ADME, organism-based; set-up: dose 30 mg/kg, route oral
Hepatocyte = test: Cellular uptake in human hepatocytes assessed per mg of cellular protein association with hepatocyte fraction at 0.378 uM after 1 hr by LC/MS/MS analysis; format: ADME, cell-based
Hepatitis C virus [34] = test: Antiviral activity against Hepatitis C virus infected in human Huh7ET cells assessed as inhibition of viral replication at 0.02 to 5 uM after 24 hrs by luciferase reporter gene assay; format: functional, Hepacivirus hominis, Huh-7
[35] = Cytotoxicity against human Huh7ET cells assessed as lactate dehydrogenase release up to 5 uM after 72 hrs in presence of 10 to 40% human serum; format: cell-based; conditions: huh-7, 72 h
[36] = Cytotoxicity against human Huh7ET cells assessed as lactate dehydrogenase release after 72 hrs; format: cell-based, Huh-7
PBMC = test: Antiinflammatory activity in human PBMC assessed as inhibition of anti-CD3/CD28 antibody-induced IL-2 production treated for 1 hr before anti-CD3/CD28 antibody challenge measured after 6 hrs by immunosuppression assay; format: functional, cell-based; conditions: read-out: EC50
[37] = Cytotoxicity against human PBMC assessed as cell viability at 10 uM after 18 hrs relative to control; format: cell-based; conditions: read-out: Activity
Hepatitis C virus [38] = test: microbe, parasite or virus in culture; conditions: Huh-7, 24 h
Description: Antiviral activity against Hepatitis C virus infected in human Huh7ET cells assessed as inhibition of viral replication after 24 hrs by luciferase reporter gene assay

Hepatitis C virus [39] = test: microbe, parasite or virus in culture; conditions: Huh-7, 72 h
Hepatitis C virus [40] = test: microbe, parasite or virus in culture; conditions: Huh-7
Description: Antiviral activity against Hepatitis C virus infected in human Huh7ET cells assessed as suppression of full length viral RNA replication after 24 to 72 hrs by luciferase reporter gene assay

Hepatitis C virus [41] = test: microbe, parasite or virus in culture; conditions: Huh-7, 120 h
Description: Antiviral activity against Hepatitis C virus infected in human Huh7ET cells assessed as inhibition of viral replication after 120 hrs by luciferase reporter gene assay

Hepatitis C virus [42] = test: microbe, parasite or virus in culture; conditions: Huh-7, 24 h; remark: listed apart in the source
Description: Antiviral activity against Hepatitis C virus infected in human Huh7ET cells assessed as inhibition of viral replication after 24 hrs by RT-PCR analysis

Hepatitis C virus [43] = test: microbe, parasite or virus in culture; conditions: Huh-7, 72 h; remark: listed apart in the source
Description: Antiviral activity against Hepatitis C virus infected in human Huh7ET cells assessed as inhibition of viral replication after 72 hrs by RT-PCR analysis

C/C=C/C[C@@H](C)[C@@H](O)[C@H]1C(=O)N[C@@H](CC)C(=O)N(C)C(SCCN(C)C)C(=O)N(C)[C@@H](CC(C)(C)O)C(=O)N[C@@H](C(C)C)C(=O)N(C)[C@@H](CC(C)C)C(=O)N[C@@H](C)C(=O)N[C@H](C)C(=O)N(C)[C@@H](CC(C)C)C(=O)N(C)[C@@H](CC(C)C)C(=O)N(C)[C@@H](C(C)C)C(=O)N1C (single isomer, unassigned) [SCY 635]
Activity (Hepatitis C virus [1]; Hepacivirus hominis, Huh-7): Dose-dependent effect
EC90 (Hepatitis C virus [1]; Huh-7, 72 h): 350 nM
Activity [2]: Non-toxic
clearance [3]: 9 µL/min/mg
clearance (Liver microsomes): 14 µL/min/mg
pIC50 (Cytochrome P450 2C19): 4.91
pIC50 (Cytochrome P450 2C9): 4.87
Cmax [4]: 1510 ng/mL
Cmax [5]: 2310 ng/mL
clearance [6]: 1.48 mL/min/kg
clearance [7]: 2.23 mL/min/kg
clearance [8]: 0.528 mL/min/kg
half-life [9]: 42.2 h
AUC(0-inf) [10]: 22500 ng·h/mL
AUC(0-inf) [11]: 37300 ng·h/mL
AUC(0-inf) [12]: 31500 ng·h/mL
Cmax [13]: 1930 ng/mL
Tmax [14]: 2 h
Tmax [15]: 2.7 h
AUC(0-inf) [16]: 13000 ng·h/mL
AUC(0-inf) [17]: 27900 ng·h/mL
AUC(0-inf) [18]: 59200 ng·h/mL
AUC(0-inf) [19]: 42000 ng·h/mL
half-life [20]: 21.4 h
half-life [21]: 43.3 h
bioavailability [22]: 23.1%
bioavailability [23]: 23.6%
bioavailability [24]: 18.9%
bioavailability [25]: 11.1%
bioavailability [26]: 15.7%
AUC(0-t) [27]: 139000 ng·h/mL
AUC(0-t) [28]: 120000 ng·h/mL
AUC(0-t) [29]: 141000 ng·h/mL
Cmax [30]: 13500 ng/mL
Cmax [31]: 3360 ng/mL
Cmax [32]: 1870 ng/mL
Cmax [33]: 2220 ng/mL
Drug uptake (Hepatocyte): 1.03 ng/mg
inhibition (INH) (Hepatitis C virus [34]): 70%
Activity [35]: Non-toxic
CC50 at 72 h [36]: 14200 nM
pEC50 (PBMC): 5.28
viability at 18 h, 10 µM [37]: 10.9%
pEC50 (Hepatitis C virus [38]): 6.70
pEC50 (Hepatitis C virus [39]): 6.96
pEC50 (Hepatitis C virus [40]): 6.89
pEC50 (Hepatitis C virus [41]): 6.82
pEC50 (Hepatitis C virus [42]): 6.92
pEC50 (Hepatitis C virus [43]): 6.80
